{"source": "patent US20090069408A1", "about": "“TRICYCLIC COMPOUNDS USEFUL IN TREATING IRON DISORDERS” (XENON PHARMACEUTICALS INC., priority 2007, published 2009)", "note": "Where a name gives a salt, the structure may show the parent alone."}
{"compound": "Cc1c2cccc(CSC(=N)N)c2nc2c(CSC(=N)N)cccc12", "note": "(as salt: hydrobromid) [Example 1.17, (9-methylacridine-4,5-diyl)bis(methylene) dicarbamimidothioate dihydrobromide]", "melting point": "> 270 °C (dec.)"}
{"compound": "N=C(N)SCc1cccc2c1-c1c(CSC(=N)N)cccc1C2=O", "note": "(as salt: hydrobromid) [Example 1.15, (9-oxo-9H-fluorene-4,5-diyl)bis(methylene) dicarbamimidothioate dihydrobromide]", "melting point": "218 to 220 °C"}
{"compound": "N=C(N)SCc1cccc2sc3cccc(CSC(=N)N)c3c12", "note": "(as salt: hydrobromid) [Example 1.14, dibenzo[b,d]thiophene-1,9-diylbis(methylene) dicarbamimidothioate dihydrobromide]", "melting point": "228 to 230 °C"}
{"compound": "N=C(N)SCc1cc(F)cc2c1-c1c(CSC(=N)N)cc(F)cc1-2", "note": "(as salt: hydrobromid) [Example 5, (3,6-difluorobiphenylene-1,8-diyl)bis(methylene) dicarbamimidothioate dihydrobromide]", "melting point": "> 250 °C"}
{"compound": "N=C(N)SCc1cccc2c1sc1c(CSC(=N)N)cc(F)cc12", "note": "(as salt: hydrobromid) [Example 1.10, (2-fluorodibenzo[b,d]thiophene-4,6-diyl)bis(methylene) dicarbamimidothioate dihydrobromide]", "melting point": "> 230 °C"}
{"compound": "N=C(N)SCc1cccc2c1oc1c(CSC(=N)N)cc(F)cc12", "note": "(as salt: hydrobromid) [Example 1.6, (2-fluorodibenzo[b,d]furan-4,6-diyl)bis(methylene) dicarbamimidothioate dihydrobromide]", "melting point": "> 220 °C"}
{"compound": "Cc1ccc2c(oc3c(CSC(=N)N)c(C)ccc32)c1CSC(=N)N", "note": "(as salt: hydrobromid) [Example 1.3, (3,7-dimethyldibenzo[b,d]furan-4,6-diyl)bis(methylene) dicarbamimidothioate dihydrobromide]", "melting point": "> 220 °C"}
